# Where two headings read alike, the source gives them in different places.
# What was measured:
# [1] = biological target: T1, Met (h) (Homo sapiens, UniProt P08581); experiment: Met (h) kinase assay (33P-ATP filter assay, performed by Millipore); assay type: biochemical; details: 0.2 μM test compound; remaining activity relative to DMSO control set to 100%; duplicate
# T1 construct: purchased Millipore
# Experimental: (specific activity approx. 500 cpm/pmol, concentration as required) and 0.2 μM test compound. The reaction is initiated by the addition of the MgATP mix. After incubation for 40 minutes at room temperature, the reaction is stopped by the addition of 3% phosphoric acid solution. 10 μL of the reaction is then spotted onto a P30 filtermat and washed three times for 5 minutes in 75 mM phosphoric acid and once in methanol prior to drying and scintillation counting. This assay is performed by Millipore. The experiment is carried out in duplicate. The value for the control sample (DMSO) was set to 100%, and the values for the compound-treated samples were expressed as activity relative to the control sample.
# [2] = tested on: U87-MG cells; experiment: Cellular proliferation analysis (MTS assay), U87-MG; assay type: cell-based; details: Homo sapiens, U-87 MG, 168 h, read-out: IC50 U87-MG
# Experimental: (§1) Cell proliferation analysis was conducted by the MTS assay protocol. Briefly, U87-MG cells will be cultured in EMEM medium, EBC-1 cells and SNU-5 cells will be cultured in MEM medium, MKN45 cells, NCI-H1975 cells and NCI-H1993 cells will be cultured in RPMI1640 medium, A549 cells will be cultured in McCoy's 5a medium. […] All culture media will be purchased from GIBCO (USA). The cells will be harvested respectively during the logarithmic growth period and counted with hemocytometer. […] Add […] cell suspensions to 96-well plates (triplicates for each cell concentration), the final cell densities are 2×10^4 or 1×10^4 or 5×10^3 cells/well. The density of 5×10^3 cells/well will be used for our first test. The appropriate cell density will be determined and adjusted according to the results of our first test. The next day, dissolve the test article or positive drugs with DMSO or PBS as stock solution. Dispense 2 μl drug solution in 1 ml culture media. Add 200 μl drug media into 96-well plates (triplicate for each drug concentration) after discard the old media. The final concentration of drug will be 0, 0.03, 0.1, 0.3, 1, 3, 10, 30 or 100 μM. The plates will be cultured for another 7 days, then measured by means of MTS assay. Prepare MTS/PMS solution immediately prior to use, pipet 20 μl of the mixture into each well of the 96 well assay plate containing 100 μl culture media. (The final reaction volume is 120 μl). Incubate the plate for 1-4 hours at 37° C. in a humidified, 5% CO2 atmosphere. Record the absorbance at 490 nm using Victor X5 microplate spectrophotometer.
# [3] = tested on: EBC-1 cells; experiment: Cellular proliferation analysis (MTS assay), EBC-1; assay type: cell-based; details: Homo sapiens, read-out: IC50 EBC-1
# Experimental: as §1
# [4] = tested on: MKN45 cells; experiment: Cellular proliferation analysis (MTS assay), MKN45; assay type: cell-based; details: Homo sapiens, MKN-45, 168 h, read-out: IC50 MKN45
# Experimental: as §1
# [5] = tested on: NCI-H1975 cells; experiment: Cellular proliferation analysis (MTS assay), NCI-H1975; assay type: cell-based; details: Homo sapiens, read-out: IC50 NCI-H1975
# Experimental: as §1
# [6] = tested on: A549 cells; experiment: Cellular proliferation analysis (MTS assay), A549; assay type: cell-based; details: Homo sapiens, read-out: IC50 A549
# Experimental: as §1
# [7] = tested on: NCI-H1993 cells; experiment: Cellular proliferation analysis (MTS assay), NCI-H1993; assay type: cell-based; details: Homo sapiens, read-out: IC50 NCI-H1993
# Experimental: as §1
# [8] = tested on: SNU-5 cells; experiment: Cellular proliferation analysis (MTS assay), SNU-5; assay type: cell-based; details: Homo sapiens, SNU-5, 168 h, read-out: IC50 SNU5
# Experimental: as §1
# [9] = tested on: A549 tumors; details: oral gavage, vs vehicle control
# Experimental: (§2) Human non small cell lung cancer cells A549, human gastric cancer cells MKN45, and human lung squamous cell carcinoma cells EBC-1 are expanded in culture, harvested, and injected subcutaneously onto the right flank of BALB/c nude mice. Testing compound is prepared in an appropriate vehicle and is administered by oral gavage when tumors are established (6-10 days after implant). Tumor response is determined by tumor volume measurement performed twice a week during the course of treatment. Tumor volume inhibition (% growth inhibition) is calculated by comparing treated groups to vehicle control group. Body weight is taken as a general measurement of toxicity.
# [10] = tested on: EBC-1 tumors; details: oral gavage, vs vehicle control
# Experimental: as §2
# [11] = tested on: MKN45 tumors; details: oral gavage, vs vehicle control
# Experimental: as §2
# [12] = 168 h, EBC-1 cells, 7 days, MTS
# [13] = 168 h, NCI-H1975 cells, 7 days, MTS
# [14] = 168 h, NCI-H1993 cells, 7 days, MTS
# T1 sequence (P08581 25-1390): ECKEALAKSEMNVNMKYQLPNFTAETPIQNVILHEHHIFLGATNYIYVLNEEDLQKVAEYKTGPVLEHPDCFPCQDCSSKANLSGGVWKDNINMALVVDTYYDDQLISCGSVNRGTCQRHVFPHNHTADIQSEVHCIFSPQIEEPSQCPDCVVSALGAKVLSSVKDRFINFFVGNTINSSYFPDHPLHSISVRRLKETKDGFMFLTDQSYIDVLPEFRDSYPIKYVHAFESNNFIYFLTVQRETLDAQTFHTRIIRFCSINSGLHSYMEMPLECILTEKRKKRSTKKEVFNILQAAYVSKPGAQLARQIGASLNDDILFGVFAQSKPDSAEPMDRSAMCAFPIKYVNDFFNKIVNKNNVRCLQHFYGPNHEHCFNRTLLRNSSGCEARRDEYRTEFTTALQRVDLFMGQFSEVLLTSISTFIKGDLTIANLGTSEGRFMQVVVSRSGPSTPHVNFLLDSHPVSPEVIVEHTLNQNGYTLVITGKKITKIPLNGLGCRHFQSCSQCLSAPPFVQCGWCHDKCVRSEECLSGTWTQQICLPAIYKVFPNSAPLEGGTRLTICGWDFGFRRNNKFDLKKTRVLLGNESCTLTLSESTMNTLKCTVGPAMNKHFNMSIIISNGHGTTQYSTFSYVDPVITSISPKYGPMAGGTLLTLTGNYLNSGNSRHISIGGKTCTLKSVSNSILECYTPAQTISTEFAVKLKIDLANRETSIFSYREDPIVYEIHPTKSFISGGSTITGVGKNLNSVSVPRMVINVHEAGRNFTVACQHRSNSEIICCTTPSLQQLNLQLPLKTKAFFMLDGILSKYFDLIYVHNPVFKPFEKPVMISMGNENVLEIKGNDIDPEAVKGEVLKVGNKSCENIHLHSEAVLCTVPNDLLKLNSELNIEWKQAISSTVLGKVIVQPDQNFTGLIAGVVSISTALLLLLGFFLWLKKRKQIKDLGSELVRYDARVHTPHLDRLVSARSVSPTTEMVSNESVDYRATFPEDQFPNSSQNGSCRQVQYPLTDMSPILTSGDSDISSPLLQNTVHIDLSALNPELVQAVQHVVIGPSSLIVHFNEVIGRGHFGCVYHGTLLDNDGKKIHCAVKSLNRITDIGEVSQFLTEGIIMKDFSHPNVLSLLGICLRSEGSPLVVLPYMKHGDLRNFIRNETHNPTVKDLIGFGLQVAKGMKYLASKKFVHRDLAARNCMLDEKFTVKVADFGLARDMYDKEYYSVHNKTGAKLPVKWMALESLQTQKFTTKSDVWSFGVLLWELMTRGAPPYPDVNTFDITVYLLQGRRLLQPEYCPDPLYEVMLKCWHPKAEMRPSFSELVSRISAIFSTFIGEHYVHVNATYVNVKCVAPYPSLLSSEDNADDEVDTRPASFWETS
Compound,Activity (control) % [1] [%],"IC50 ([2]; U87-MG cells, 7 days, MTS) [µM]","IC50 [3, 12] [µM]","IC50 ([4]; MKN45 cells, 7 days, MTS) [µM]","IC50 [5, 13] [µM]","IC50 ([6]; 168 h, A549 cells, 7 days, MTS) [µM]","IC50 [7, 14] [µM]","IC50 ([8]; SNU5 cells, 7 days, MTS) [µM]",further results
"O=C(Nc1ccc(Oc2ccnc3c2CCN3)c(F)c1)c1cccn(-c2ccc(F)cc2)c1=O [Example 7, N-(4-(2,3-dihydro-1H-pyrrolo[2,3-b]pyridin-4-yloxy)-3-fluorophenyl)-1-(4-fluorophenyl)-2-oxo-1,2-dihydropyridine-3-carboxamide]",11,5.1,9.4,6.7,17.8,23.3,4.6,7.8,
"O=C(Nc1ccc(Oc2ccnc3c2OCCN3)c(F)c1)c1c[nH]cc(-c2ccc(F)cc2)c1=O [Example 3, N-(4-(3,4-dihydro-2H-pyrido[3,2-b][1,4]oxazin-8-yloxy)-3-fluorophenyl)-5-(4-fluorophenyl)-4-oxo-1,4-dihydropyridine-3-carboxamide]",6,,,,,,,,"IC50 [2]: 6.3 µM; IC50 ([3]; EBC-1, 168 h): 0.4 µM; IC50 [4]: 6.2 µM; IC50 ([5]; NCI-H1975, 168 h): 14.6 µM; IC50 ([6]; A549, 168 h): 20.1 µM; IC50 ([7]; NCI-H1993, 168 h): 1.5 µM; IC50 [8]: 3.1 µM"
O=C(Nc1ccc(F)cc1)C1(C(=O)Nc2ccc(Oc3ccnc4c3CCN4)c(F)c2)CC1 [Example 12],15,3.8,11.1,11.5,23.2,20.6,9.2,9.3,
"Cc1c(C(=O)Nc2ccc(Oc3ccnc4c3OCCN4)c(F)c2)c(=O)n(-c2ccccc2)n1C [Example 20, N-(4-(3,4-dihydro-2H-pyrido[3,2-b][1,4]oxazin-8-yloxy)-3-fluorophenyl)-1,5-dimethyl-3-oxo-2-phenyl-2,3-dihydro-1H-pyrazole-4-carboxamide]",45,,,,,,,,
"Cc1c(C(=O)Nc2ccc(Oc3ccnc4c3CCN4)c(F)c2)c(=O)n(-c2ccccc2)n1C [Example 19, N-(4-(2,3-dihydro-1H-pyrrolo[2,3-b]pyridin-4-yloxy)-3-fluorophenyl)-1,5-dimethyl-3-oxo-2-phenyl-2,3-dihydro-1H-pyrazole-4-carboxamide]",51,,,,,,,,
"O=C(Nc1ccc(Oc2ccnc3c2CCN3)c(F)c1)c1c[nH]cc(-c2ccc(F)cc2)c1=O [Example 1, N-(4-(2,3-dihydro-1H-pyrrolo[2,3-b]pyridin-4-yloxy)-3-fluorophenyl)-5-(4-fluorophenyl)-4-oxo-1,4-dihydropyridine-3-carboxamide]",1,,,,,,,,"IC50 [2]: 3.4 µM; IC50 ([3]; EBC-1, 168 h): 0.06 µM; IC50 [4]: 0.4 µM; IC50 ([5]; NCI-H1975, 168 h): 13 µM; IC50 ([6]; A549, 168 h): 15.4 µM; IC50 ([7]; NCI-H1993, 168 h): 0.4 µM; IC50 [8]: 0.9 µM; growth inhibition of A549 tumors ([9]; 60 mg/kg (qd x24)): 76.6%; growth inhibition of A549 tumors ([9]; 120 mg/kg (qd x24)): 96.7%; growth inhibition of EBC-1 tumors ([10]; 40 mg/kg (qd x17)): 56.5%; growth inhibition of EBC-1 tumors ([10]; 80 mg/kg (qd x17)): 100%; growth inhibition of MKN45 tumors ([11]; 60 mg/kg (qd x22)): 38.9%; growth inhibition of MKN45 tumors ([11]; 120 mg/kg (qd x22)): 71.9%"
"O=C(Nc1ccc(Oc2ccnc3c2OCCCN3)cc1)c1c[nH]cc(-c2ccc(F)cc2)c1=O [Example 56, 5-(4-Fluoro-phenyl)-4-oxo-1,4-dihydro-pyridine-3-carboxylic acid [4-(6,7,8,9-tetrahydro-5-oxa-1,9-diaza-benzocyclohepten-4-yloxy)-phenyl]-amide]",2,4.7,0.1,1.2,14.3,18.1,0.7,1.7,
"O=C(Nc1ccc(Oc2ccnc3c2OCCN3)cc1)c1cccn(-c2ccc(F)cc2)c1=O [Example 9, N-(4-(3,4-dihydro-2H-pyrido[3,2-b][1,4]oxazin-8-yloxy)phenyl)-1-(4-fluorophenyl)-2-oxo-1,2-dihydropyridine-3-carboxamide]",6,5.5,0.6,1.3,8.3,15.7,7.9,2.9,
